In one experiment the target is T1, hPIEZO1 (Homo sapiens, UniProt Q92508).
T1 construct: expressed in transfected cells
Description: Fluid shear stress assay: shear-induced [Ca2+]i increase (Fluo-4 AM) in hP1-CL cells. The format is cell-based. The conditions noted are these: for Shear response of hP1-CL cells after cytoskeletal disruption: concentration not given; for Effect on fluid shear [Ca2+]i response: hP1-CL cells. The procedure:
We first created a cell line that expressed a fluorescently tagged version of human PIEZO1 called hPIEZO1-1591-EGFP[5]. […] The cDNA was integrated into the genome of HEK293T cells using a lentivirus vector.
The microfluidic chambers had glass coverslip bottoms coated with human fibronectin (Invitrogen)[20] and fluid flow guided by PDMS channels. Cells were cultured in the chamber for 3 days, with daily medium changes. On the experimental day, chambers were rinsed with isotonic solution (75 mM NaCl, 5 mM KCl, 2 mM MgCl2, 1 mM CaCl2 and 10 mM HEPES, adjusted to 320 mOsm with mannitol). A stock of Fluo-4 AM was diluted to 5 µM in isotonic saline and incubated with cells for 10–30 min at 37C°. Chambers were then rinsed twice with isotonic solution and incubated for 8 minutes to complete Fluo-4 AM de-esterification. A single fluid shear stress pulse of ~15 dynes/cm^2 for 8–10 ms was applied to the chamber using a high-speed pressure servo (HSPC-1 from ALA). Peptide stocks were kept at 4 °C until used, dissolved to desired concentrations, and immediately added to cells.
Images of the cellular response to shear stress were captured by an EM-CCD camera (C9100 model, Hamamatsu) at a nominal rate of 1 Hz. To quantify the response, the average intensity in the field of view was background subtracted. Image intensity was adjusted for the rate of bleaching. Each condition was repeated in four separate chambers, and the results averaged. The responses were normalized to the control experiments, and the inhibition was calculated as previously described. The data points were fit by a Hill plot with the equation:1 y=Vmax⁎x^n/(k^n+x^n) where Vmax is the maximum response, n is the Hill coefficient, and k is related to the concentration at half-maximal response.

A further experiment deals with PIEZO1 channels. The format is cell-based, human. The conditions noted are these: 5 µM perfused, 50 mV, 60 mmHg pulses; 3 independent experiments.
For a further experiment, the system named is hP1-CL cells. The experiment in a line: Cell migration (wound healing) assay with peel-off PDMS barrier. The format is cell-based, human. Conditions: 5 µM. The procedure:
PIEZO1 channels are involved in neurite extension[16] and other types of cell motility. This led us to test the effects of Aβ peptides on hP1-CL motility in a wound healing assay. Cells were grown to confluence on glass coverslips half-coated with PDMS (Polydimethylsiloxane). The PDMS layer was then peeled off allowing us to accurately measure the collective cell migration rates across the newly exposed glass surface.
Figure 3 Aβ peptides inhibit migration of hP1-CL cells. Cell migration was measured as cell movement on glass cover slips in polystyrene dishes at 37 °C and 5% CO2. A PDMS barrier to cell growth was created on the cover slip. When cells reached confluency, the barrier was peeled off. Images of the resulting, initially sharp confluent cell boundary were captured at 0.003 Hz over 5 hours. […] Bottom left panel summarizes the mean cell migration distances as a function of time. […] Three independent experiments were averaged (SEM).
Half of a glass coverslip was coated with catalyzed PDMS (polydimethylsiloxane) (9:1) and allowed to harden. Cells were cultured on the complete coverslip kept in tissue culture dishes. After achieving confluency, the PDMS was peeled from the glass. The location of the front edge of the confluent cells was monitored for 5 hr at 37 C° with 5% CO2-supplemented DMEM media containing 10% bovine serum. […]

Another experiment has as its system hP1-mCherry-CL cells. The experiment in a line: Actin stress, cpst-FRET actin force probe, in PIEZO1-overexpressing cells. The format is cell-based, human. Conditions: for Effect on actin stress: 37 °C, 15 cells from 3 experiments. The source says: Cell movement in the presence of PIEZO1 channels appears to rely on cytoskeletal integrity and plasticity, consistent with the ability of cytoskeletal disrupting agents to prevent PIEZO1 activation (Supplementary Fig. 4A). We examined forces within the cytoskeleton during channel inhibition. By transient transfection, we introduced a genetically encoded optical probe of actin stress (cpst-FRET) into stable hP1-mCherry-CL cells[19] (Fig. 4A), resulting in probe expression into F-actin. […] For each experiments described below, we analyzed and averaged (with SD) 15 cells from 3 different experiments. […] 10 pM of monomerized scrambled Aβ peptide (black squares) also had no effect on actin stress.
Figure 4 D-GsMTx4 and the enantiomeric Aβ(1-40) peptides inhibit Ca^2+ entry, and increase cytoskeleton stress in hP1-mCherry-CL cells. hP1-mCherry-CL cells were transiently transfected with cDNA encoding the actin force probe to monitor peptide-induced changes to the cell’s cytoskeleton. […] Each data point is the average of 15 cells from 3 different experiments (with SD). A baseline response is established in the first 30 minutes (37 °C and 5% CO2). Addition (green bar) of D-GsMTx4 (5 uM, black squares) or monomeric enantiomeric Aβ(1-40) peptides (10 pM; L, red circles; D, blue triangles) elicits immediate increases in actin stress. […] Bath removal of extracellular Ca^2+ elicits the largest effect (40%, blue triangles). Data points are 15 cells from 3 independent experiments with SD. Panel D summarizes Aβ responses at the 60 min time point (paired t-test). […] Before and after intensities were analyzed by paired t-test ([…]). […]
(§1) To measure cytoskeletal stress, hP1-mCherry-CL cells were transiently transfected with cDNA encoding the cpst-actin FRET probe. The FRET ratio of […] was measured by simultaneous imaging using an image splitter. Baseline actin stress was measured at 37 °C in isotonic solution for 30 min before peptide addition (see above).

Another experiment concerns HEK293T cells. The experiment in a line: Actin stress, actin force probe, in unmodified control cells. Format: cell-based. As to the method:
(Panel A) HEK293T cells were monitored for 30 min to establish a baseline.
as §1

The values below come from publication PMC6155315, “Enantiomeric Aβ peptides inhibit the fluid shear stress response of PIEZO1” (Scientific Reports, 2018).

“And” between values parts separate entries of the source, which are not always exact repeats. Identical values can stand only once. Positions of bridges follow the written chain, without caps; N, C: chain ends. Residues, ends and D or L forms follow the SMILES beside them.

T1 sequence (Q92508 whole entry): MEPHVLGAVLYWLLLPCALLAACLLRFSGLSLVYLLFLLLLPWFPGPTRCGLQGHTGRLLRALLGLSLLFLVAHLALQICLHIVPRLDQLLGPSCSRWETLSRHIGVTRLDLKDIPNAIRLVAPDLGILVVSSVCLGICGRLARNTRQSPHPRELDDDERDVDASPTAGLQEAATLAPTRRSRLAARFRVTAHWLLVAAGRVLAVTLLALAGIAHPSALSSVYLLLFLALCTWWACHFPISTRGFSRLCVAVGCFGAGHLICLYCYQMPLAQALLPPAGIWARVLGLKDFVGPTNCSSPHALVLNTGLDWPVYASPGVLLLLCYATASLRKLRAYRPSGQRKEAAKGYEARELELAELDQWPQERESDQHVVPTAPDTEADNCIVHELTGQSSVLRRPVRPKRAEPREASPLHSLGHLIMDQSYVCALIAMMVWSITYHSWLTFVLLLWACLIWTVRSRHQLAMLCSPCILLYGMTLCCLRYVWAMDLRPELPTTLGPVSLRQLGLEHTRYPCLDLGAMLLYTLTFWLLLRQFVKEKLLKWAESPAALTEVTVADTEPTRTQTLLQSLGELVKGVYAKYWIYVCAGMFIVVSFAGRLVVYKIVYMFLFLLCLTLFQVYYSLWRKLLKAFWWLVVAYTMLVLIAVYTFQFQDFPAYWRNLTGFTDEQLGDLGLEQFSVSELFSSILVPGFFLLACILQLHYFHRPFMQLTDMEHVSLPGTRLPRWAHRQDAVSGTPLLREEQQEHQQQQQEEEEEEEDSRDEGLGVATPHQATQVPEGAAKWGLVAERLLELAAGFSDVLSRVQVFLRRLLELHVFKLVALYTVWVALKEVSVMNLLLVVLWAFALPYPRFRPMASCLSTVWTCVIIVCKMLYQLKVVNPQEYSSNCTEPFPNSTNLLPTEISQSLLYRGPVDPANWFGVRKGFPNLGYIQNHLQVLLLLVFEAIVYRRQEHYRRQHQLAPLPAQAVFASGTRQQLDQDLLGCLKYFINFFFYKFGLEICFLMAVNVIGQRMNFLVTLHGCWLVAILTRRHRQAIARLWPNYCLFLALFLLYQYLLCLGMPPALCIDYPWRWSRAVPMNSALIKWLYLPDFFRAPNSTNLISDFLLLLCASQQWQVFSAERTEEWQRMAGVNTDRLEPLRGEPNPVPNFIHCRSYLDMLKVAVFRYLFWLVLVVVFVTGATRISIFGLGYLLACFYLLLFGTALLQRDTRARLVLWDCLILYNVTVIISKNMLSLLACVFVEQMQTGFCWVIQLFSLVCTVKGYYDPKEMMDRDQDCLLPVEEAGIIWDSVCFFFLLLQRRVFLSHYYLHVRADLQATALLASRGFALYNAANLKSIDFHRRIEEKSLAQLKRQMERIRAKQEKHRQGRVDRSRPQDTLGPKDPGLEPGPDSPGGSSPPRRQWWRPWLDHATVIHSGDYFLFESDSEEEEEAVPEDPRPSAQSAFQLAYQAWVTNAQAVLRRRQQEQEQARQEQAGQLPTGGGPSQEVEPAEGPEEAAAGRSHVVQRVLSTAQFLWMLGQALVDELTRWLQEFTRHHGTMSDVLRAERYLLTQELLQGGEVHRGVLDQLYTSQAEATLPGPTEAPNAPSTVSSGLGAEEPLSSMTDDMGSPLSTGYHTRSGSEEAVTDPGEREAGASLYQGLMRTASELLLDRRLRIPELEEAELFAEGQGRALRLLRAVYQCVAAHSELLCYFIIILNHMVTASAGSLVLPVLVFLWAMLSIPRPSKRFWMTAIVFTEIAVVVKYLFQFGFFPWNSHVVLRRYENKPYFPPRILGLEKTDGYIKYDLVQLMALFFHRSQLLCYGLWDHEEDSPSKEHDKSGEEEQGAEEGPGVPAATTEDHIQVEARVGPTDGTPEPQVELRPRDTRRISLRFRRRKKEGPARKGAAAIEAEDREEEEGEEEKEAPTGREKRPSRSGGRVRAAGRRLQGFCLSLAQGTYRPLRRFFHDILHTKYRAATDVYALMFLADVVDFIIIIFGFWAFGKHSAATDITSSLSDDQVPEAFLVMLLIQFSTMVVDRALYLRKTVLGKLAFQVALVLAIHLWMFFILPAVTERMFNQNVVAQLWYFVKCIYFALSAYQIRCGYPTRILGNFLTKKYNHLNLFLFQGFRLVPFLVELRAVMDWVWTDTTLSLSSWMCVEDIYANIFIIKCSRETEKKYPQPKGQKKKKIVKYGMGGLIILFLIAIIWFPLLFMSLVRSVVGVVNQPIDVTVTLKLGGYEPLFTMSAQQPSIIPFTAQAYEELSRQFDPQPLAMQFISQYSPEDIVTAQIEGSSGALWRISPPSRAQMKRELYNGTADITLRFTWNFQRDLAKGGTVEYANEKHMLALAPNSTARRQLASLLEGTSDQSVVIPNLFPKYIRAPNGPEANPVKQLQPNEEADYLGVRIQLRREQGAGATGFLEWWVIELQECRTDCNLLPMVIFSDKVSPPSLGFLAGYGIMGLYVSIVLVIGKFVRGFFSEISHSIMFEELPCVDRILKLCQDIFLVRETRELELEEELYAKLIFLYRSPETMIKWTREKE
Description for PIEZO1 channels: We examined whether the Aβ could inhibit PIEZO1 currents in the patch. We formed outside/out patches from the hP1 cell line and tested whether 10 µM of Aβ (1-40) or Aβ (1-42) (Peptide Method I) inhibited channel activity, a concentration that blocked the shear response.
Cell-attached and outside-out patches were used as previously described[47]. All experiments were at room temperature. Pressure or suction steps were applied to the membranes using a high speed pressure clamp (ALA)[48]. The bath solution contained (in mM): 150 KCl, 10 HEPES, 1 MgCl2, 1 CaCl2 at pH 7.4 that clamped the resting membrane potential to zero. The pipette solution was 150 mM KCl at pH 7.4.
Shown above are typical results from single patches. Left- a positive pressure pulse of 60 mmHg at 50 mV lasting 500 msec was applied to an O/O patch every 2 seconds. After 12 pulses (24 seconds, black trace is the average of 12 pulses), 10 µM of L Aβ(1-40) was applied by perfusion and activity was monitored for 30 seconds (red trace is the average of 15 pulses). […] Center- The effect of Aβ(1-42) on a different patch (identical conditions described above). 12 pressure pulses (black trace) established a baseline response. […] 6 pressure pulses (50 mV, 60 mmHg) were applied to establish the baseline response (black). […]

Consider `COc1cc2c(c(OC)c1OC)-c1ccc(OC)c(=O)cc1[C@@H](NC(C)=O)CC2` [colchicine], for which, on hPIEZO1 (Supplementary Fig. 3A), the “Shear response of hP1-CL cells after cytoskeletal disruption” value is given as “unresponsive to fluid shear”.

On to `CC(C)C[C@@H]1NC(=O)[C@@H](NC(=O)CN)CSSC[C@@H]2NC(=O)[C@@H]3CSSC[C@@H](C(=O)N[C@@H](CC(N)=O)C(=O)N[C@@H](Cc4ccccc4)C(=O)N[C@@H](CO)C(=O)N[C@@H](Cc4ccccc4)C(N)=O)NC(=O)[C@H](CC(C)C)NC(=O)[C@H](CCCCN)NC(=O)[C@H](Cc4ccccc4)NC(=O)[C@H](CC(C)C)NC(=O)[C@H](CCCCN)NC(=O)[C@H](CO)NC(=O)[C@H](CSSC[C@H](NC(=O)[C@H](CCCCN)NC(=O)[C@H](Cc4c[nH]c5ccccc45)NC(=O)[C@H](Cc4c[nH]c5ccccc45)NC(=O)[C@H](Cc4ccccc4)NC(=O)[C@H](CCC(=O)O)NC1=O)C(=O)N[C@@H](CC(N)=O)C(=O)N1CCC[C@H]1C(=O)N[C@@H](CC(N)=O)C(=O)N[C@@H](CC(=O)O)C(=O)N[C@@H](CC(=O)O)C(=O)N[C@@H](CCCCN)C(=O)N3)NC(=O)[C@H](CCCCN)NC(=O)[C@H](CC(C)C)NC(=O)[C@H](CCCCN)NC(=O)[C@@H]1CCCN1C(=O)[C@H](CCCNC(=N)N)NC2=O` [GsMTx4] (H-GCLEFWWKCNPNDDKCCRPKLKCSKLFKLCNFSF-NH2; disulfide 2-17, 9-23, 16-30; N-terminus and C-terminus assumed), for which, at hPIEZO1 (5 µM, Supplementary Fig. 3A), the “Effect on fluid shear [Ca2+]i response” value was “inhibited the shear stress response”. Besides, on hPIEZO1 (shear stress assay, Aβ: within 20 min or with shear stress raised to 25 dynes/cm2), the “Reversibility of channel inhibition on washout” value was “readily restored”. Further, the “Hill coefficient” value on hPIEZO1 (titration of shear stress response of hP1-CL cells) was 1.9 and ~ 1.9. In addition, the “Inhibition of PIEZO1 outside/out patch current” value in the experiment with PIEZO1 channels is given as 0.67 ± 0.07.

As for D-GsMTx4, the “Effect on fluid shear [Ca2+]i response” value at hPIEZO1 (5 µM, Supplementary Fig. 3A) is on record as “complete inhibition”. In addition, the “Effect on hP1-CL cell migration” value in the experiment on hP1-CL cells is listed as “blocked”. Besides, the “Slowing of cell migration” value with hP1-CL cells (hP1-CL cells, 5 hr, 37 °C, 3 independent experiments) was “over 10 fold”. The “Effect on actin stress” value in the experiment with hP1-mCherry-CL cells (5 µM added after 30 min baseline) is recorded as “increase in actin stress”. For the same compound, the “Effect on F-actin in lamellipodia” value with hP1-mCherry-CL cells (actin force probe images, Fig. 4E,F, 20 lamellipodia from 4 cells) was “drop of F-actin tension and its retraction from the lamellipodia”. Moreover, the “Effect on actin stress in HEK293T cells” value in the experiment with HEK293T cells (5 µM, 15 cells from 3 experiments) is “no effect”.

Take “AEGDSHVLKEGAYMEIFDVQGHVFGGKIFRVVDLGSHNVA [scrambled L-Aβ(1-40), scrambled Aβ(1-40) peptide purchased from Anaspec, used as control]”: the “Effect on fluid shear [Ca2+]i response” value on hPIEZO1 (10 µM peptide, 4 independent experiments) was “lack of PIEZO1 inhibition”. For the same compound, in the experiment with hP1-mCherry-CL cells (10 pM monomeric peptide added after 30 min baseline), the “Effect on actin stress” value is reported as “no effect”. Also, the “Effect on actin stress probe FRET in HEK293T cells” value in the experiment with HEK293T cells (concentration not given, after 30 min baseline) is given as “no change”.

On to “HiLyte Aβ(1-42): L-Aβ(1-42) fluorescently labeled at the N-terminus with HiLyte (555), purchased (Anaspec) and monomerized”, for which the “Effect on shear stress response of the hPIEZO1 cell line” value in the experiment with hPIEZO1 (5 pM and 100 pM monomerized peptide, 4 independent experiments) is reported as “inhibited”. The “Effect on PIEZO1-mediated Ca2+ response to shear stress” value with hPIEZO1 (100 pM monomerized peptide, 4 independent experiments) was “completely inhibited”.

On to `C=C1[C@@H](C)[C@H]2[C@H](Cc3ccccc3)NC(=O)[C@]23[C@H](OC(C)=O)/C=C/[C@@](C)(O)C(=O)[C@@H](C)C/C=C/[C@H]3[C@@H]1O` [cytochalasin D], for which, at hPIEZO1 (Supplementary Fig. 3A), the “Shear response of hP1-CL cells after cytoskeletal disruption” value is reported as “unresponsive to fluid shear”.

The Hill coefficient is the slope factor of the fitted curve.
